According to patent publication US11047004B2, “Thiolated nucleotide analogues for nucleic acid synthesis” (LIFE TECHNOLOGIES CORPORATION, priority 2014, dated 2021):

Assays:
[1] = free amino acid in solution; cited from earlier work
[2] = biological target: calf intestinal phosphatase (CIP) (Bos taurus, UniProt P19111); assay: Phosphatase resistance: calf intestinal phosphatase (CIP) pre-treatment, then polymerase extension read-out; assay type: biochemical; settings: 10 u/μL CIP, 37° C., 20 min, read-out by polymerase incorporation fluorescence (FIG. 4)
Chain of calf intestinal phosphatase (CIP) (P19111 20-506 limits assumed): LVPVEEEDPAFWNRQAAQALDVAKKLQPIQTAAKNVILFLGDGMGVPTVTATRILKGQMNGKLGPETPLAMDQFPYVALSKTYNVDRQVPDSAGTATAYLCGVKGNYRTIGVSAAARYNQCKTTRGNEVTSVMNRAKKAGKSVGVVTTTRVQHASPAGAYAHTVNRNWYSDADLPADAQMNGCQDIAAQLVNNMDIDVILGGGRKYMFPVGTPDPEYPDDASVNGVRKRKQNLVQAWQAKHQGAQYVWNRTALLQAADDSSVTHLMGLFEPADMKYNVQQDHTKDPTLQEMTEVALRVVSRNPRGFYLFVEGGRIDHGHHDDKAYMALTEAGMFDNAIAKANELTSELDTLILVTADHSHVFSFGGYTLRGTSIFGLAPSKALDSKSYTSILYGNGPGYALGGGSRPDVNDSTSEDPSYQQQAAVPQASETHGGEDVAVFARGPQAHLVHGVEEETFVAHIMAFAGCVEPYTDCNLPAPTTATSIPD
Method: As an example of this resistant, representative results from an exemplary experiment are depicted in FIG. 4. […] Phosphatase-mediated hydrolysis is reflected as a non-increasing level of fluorescence, whereas phosphatase resistance is reflected as an increase in normalized fluorescence intensity.
Two solutions were prepared as follows in 20 mM Tris HCl, pH 7.5, 20 mM NaCl, 10 mM MgCl2: (A) 80 μM of TTP, and (B) 200 μM of γ-S-TTP.
To both solution was added 1.5 μL of 10 u/μL of calf intestinal phosphatase (CIP), and the solutions were incubated at 37° C. for 20 min. The phosphatase was then removed by passing the solutions through a 10,000 molecular weight cut-off ultrafiltration membrane. The resulting solutions were then used for the polymerase extension reactions.
(§1) A solution was prepared in the same buffer as above containing 250 nM of the hairpin oligonucleotide, 16 μM of a short oligonucleotide (5′-CCCCCC-3′, acting as a signal amplifier), and 2 nM of Bst polymerase. Then 50 μL aliquots of this solution were placed in individual wells of a microtiter plate. In separate wells of the same plate were placed 50 μL aliquots of the CIP-treated solutions from above, as well as identical solutions that had not been treated with CIP. The plate was equilibrated at 37° C. in a fluorescence microplate reader, and then the dNTP solutions were mixed with the solutions of polymerase and fluorogenic hairpin oligonucleotide. The polymerase catalyzed incorporation reactions were followed by recording the fluorescence intensity changes using 490 nm for excitation and 525 nm for the emission. When a polymerase reaction occurred, an increase in the fluorescence intensity over time was detected (see FIG. 4). There was no change in fluorescence when no nucleotide incorporation reaction occurred (see FIG. 4).
A treatment of synthetically prepared γ-S-TTP with CIP can be used to remove any traces of contaminating dTTP that may be present in the preparation of γ-S-TTP.

Bst polymerase = Bst polymerase (Geobacillus stearothermophilus, UniProt P52026); assay: Polymerase extension assay with fluorescein-labeled hairpin oligonucleotide (fluorescence increase on incorporation); assay type: biochemical, Bacillus stearothermophilus; settings: 2 nM Bst polymerase, 250 nM hairpin oligonucleotide, 37° C., ex 490 nm / em 525 nm; for polymerase incorporation reaction (fluorescence increase), CIP-treated nucleotide solution: nucleotide pre-treated with CIP
Chain of Bst polymerase (P52026 other isoform, or with tags, fused parts or gaps with the stated changes): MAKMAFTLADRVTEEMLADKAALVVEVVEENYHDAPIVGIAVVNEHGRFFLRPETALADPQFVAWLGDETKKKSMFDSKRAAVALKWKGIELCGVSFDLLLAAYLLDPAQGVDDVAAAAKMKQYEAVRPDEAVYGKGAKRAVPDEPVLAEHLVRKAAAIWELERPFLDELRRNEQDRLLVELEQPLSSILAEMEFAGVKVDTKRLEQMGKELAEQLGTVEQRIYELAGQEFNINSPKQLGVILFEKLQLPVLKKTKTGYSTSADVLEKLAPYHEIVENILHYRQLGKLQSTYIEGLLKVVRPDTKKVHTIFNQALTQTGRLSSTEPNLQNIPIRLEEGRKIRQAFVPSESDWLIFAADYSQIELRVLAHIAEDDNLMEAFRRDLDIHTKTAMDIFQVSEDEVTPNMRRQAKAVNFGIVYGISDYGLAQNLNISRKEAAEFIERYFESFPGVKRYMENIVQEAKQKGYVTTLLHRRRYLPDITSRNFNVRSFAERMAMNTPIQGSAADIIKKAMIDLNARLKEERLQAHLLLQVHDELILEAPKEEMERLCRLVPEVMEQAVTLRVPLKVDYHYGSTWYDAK
From the text: For the polymerase extension assays, a fluorescein-labeled oligonucleotide substrate was designed, and used in an assay to detect nucleotide incorporation. The labeled oligonucleotide is a hairpin-type oligonucleotide with a T-fluorescein residue located at the third position from the 3′ end. The 5′ end of the labeled oligonucleotide is a single stranded sequence 3′-AGGGGGG-5′. Thus, the first nucleotide to be inserted by a polymerase onto the 3′ end of the substrate is a TTP. The 5′ and 3′ ends of the hairpin oligonucleotide is shown below. A fluorescein is attached to the T residue, which is underlined and bolded: • TGC 3′ • […] 5′ (SEQ ID NO:83)
Without wishing to be bound by theory, it is postulated that when the third base from the 3′ end is labeled with a fluorphore (in this case the labeled nucleotide is a T), and when the 3′ terminal base is a cytosine or guanosine, then the fluorphore is in a stacked position with the 3′ terminal base, resulting in quenching the fluorescence from the fluorphore. When a thymidine is incorporated at the terminal 3′ end (e.g., via polymerase-mediated nucleotide incorporation), the fluorphore is un-quenched. This assay can be performed with the hairpin molecule described herein, or with two annealed single-strands that mimic the linear ends of this hairpin molecule.
as §1, with “Then 50 μL aliquots of this solution were placed in individual wells of a microtiter plate. In separate wells of the same plate were placed 50 μL aliquots of the CIP-treated solutions from above, as well as identical solutions that had not been treated with CIP.” left out

| Structure (SMILES) | pKa α-carboxylic acid [1] | pKa α-amino [1] | other results |
| --- | --- | --- | --- |
| C[C@H](N)C(=O)O [Alanine] | 2.35 | – | – |
| N[C@@H](CC(=O)O)C(=O)O [Aspartic Acid] | – | 9.82 | – |
| CC[C@H](C)[C@H](N)C(=O)O [Isoleucine] | – | 9.76 | – |
| N[C@@H](Cc1ccccc1)C(=O)O [Phenylalanine] | 2.58 | 9.24 | – |
| Cc1cn([C@H]2C[C@H](O)[C@@H](COP(=O)(O)OP(=O)(O)OP(=O)(O)O)O2)c(=O)[nH]c1=O [TTP, thymidinyl-triphosphate, reference compound] | – | – | resistance to degradation by calf intestinal (alkaline) phosphatase [2]: not reflected; polymerase incorporation reaction (fluorescence increase), CIP-treated nucleotide solution (Bst polymerase): no incorporation reaction takes place |
| CC(C)[C@H](N)C(=O)O [Valine] | 2.29 | – | – |
| Cc1cn([C@H]2C[C@H](O)[C@@H](COP(=O)(O)OP(=O)(O)OP(O)(O)=S)O2)c(=O)[nH]c1=O [γ-S-TTP, γ-S-thymidinyl-triphosphate] | – | – | resistance to degradation by calf intestinal (alkaline) phosphatase [2]: resistant to the alkaline phosphatase activity; resistance to degradation by calf intestinal (alkaline) phosphatase ([2]; listed as gamma STTP): showed a resistance to phosphatase; polymerase incorporation reaction (fluorescence increase), non-treated nucleotide solution (Bst polymerase; nucleotide not treated with CIP): polymerase reactions can be detected; polymerase incorporation reaction (fluorescence increase), CIP-treated nucleotide solution (Bst polymerase): polymerase reactions can be detected |
